Reference: patent EP0121013A1, “Oral compositions” (UNILEVER PLC, priority 1983, dated 1984)

Assays:
[1] = Ionisation: release of available F; format: physicochemical
Text: The corresponding values for Na2SnF6 are 73% and 38%, respectively. Thus Na2SnF6 is less ionised than Sn(NH4)2F6.

[2] = tested on: Streptococcus sanguis 10556; experiment: Inhibition of bacterial growth (optical density after 24 hours); format: cell-based; details: S.sanguis 10556; for IC50: 24 hours at 37°C, means of triplicate experiments, read-out: ID/50 (the source's name); for ID/50: recalculated as ppm F, 1440 min
Text: (§1) Cariogenic Bacteria used for testing the effect of Sn(^NH4)2F6 were Streptococcus mutans (strains coded 6715 and OMZ-176), Streptococcus sanguis (strains coded 10556 and 10557), Streptococcus salivarius (strains coded SS4 and H257), and Lactobacillus casei. All of the above organisms were maintained as lyophilised cultures until the time for use.
(§2) It is generally agreed that oral bacteria are responsible for tooth decay. Therefore, a reduction of the cariogenic flora usually results in a decrease in caries formation. The inhibitory action of the test compounds was. determined by adding each salt, at known concentrations, to a culture of cariogenic bacteria. After 24 hours at 37°C bacterial growth was monitored as a change in optical density. A dose response curve (concentration of salt vs. growth) for each compound against each bacterial isolate was plotted in order to obtain the concentration of test agent which would cause a 50% inhibition in growth (ID/50). This is a useful ranking index since it is not always possible to obtain complete inhibition with weak germicidal agents. Only those compounds which were able to elicit an ID/50 response were considered as inhibitory agents.
(§3) The medium used for bacterial growth experiments was Trypticase Soy Broth (B.B.L.: Baltimore Biological Labs., Baltimore, MD) supplemented with 0.1% Tween 80 (the word Tween is a trade mark) and 0.05% sodium thioglycollate. The test organisms, as lyophilised cells, were grown overnight in 50 mls of growth medium in a vacuum desiccator with an atmosphere of 97% CO /3% H2 at 35°C. These cultures were then used at a 0.2% inoculum to prepare second stage seed flasks. The test media (10ml) consisting of growth medium plus the potential inhibitors, contained in 16 x 120 mm screw top test tubes, were inoculated with the second stage seed cultures to given an absorbancy reading of 0.05. Immediately after inoculation the cultures were incubated for 24 hours under anaerobic conditions.
(§4) The growth medium was sterilised by autoclaving, whereas the potential inhibitors (as aqueous solutions) were sterilised by filtering each solution separately through a Millipore membrane (0.22 /u).
(§5) Absorbance at 600 nm versus a medium control was used as a measure of growth on a Beckman Model B spectrophotometer. All absorbancy readings were determined in 16 mm x 120 mm Kimax test tubes. This instrument was linear to 0.60 OD units; thus, all cultures displaying values above this range were diluted with the control, accordingly.

Lactobacillus casei = experiment: as above; format: cell-based; details: L.casei; for IC50: 24 hours at 37°C, means of triplicate experiments, read-out: ID/50 (the source's name); for ID/50: recalculated as ppm F, 1440 min
Text: as §1, §2, §3, §4, §5

[3] = tested on: Streptococcus salivarius H257; experiment: as above; format: cell-based; details: S.salivarius H-257; for IC50: 24 hours at 37°C, means of triplicate experiments, read-out: ID/50 (the source's name); for ID/50: recalculated as ppm F, 1440 min
Text: as §1, §2, §3, §4, §5

[4] = tested on: Streptococcus sanguis 10557; experiment: as above; format: cell-based; details: S.sanguis 10557; for IC50: 24 hours at 37°C, means of triplicate experiments, read-out: ID/50 (the source's name); for ID/50: recalculated as ppm F, 1440 min
Text: as §1, §2, §3, §4, §5

[5] = tested on: Streptococcus mutans 6715; experiment: as above; format: cell-based; details: S.mutans 6715; recalculated as ppm F; 1440 min
Text: as §1, §2, §3, §4, §5

[6] = tested on: Streptococcus mutans OMZ-176; experiment: as above; format: cell-based; details: S.mutans OMZ-176; for IC50: 24 hours at 37°C, means of triplicate experiments, read-out: ID/50 (the source's name); for ID/50: recalculated as ppm F, 1440 min
Text: as §1, §2, §3, §4, §5

[7] = tested on: Streptococcus salivarius SS4; experiment: as above; format: cell-based; details: S.salivarius SS4; for IC50: 24 hours at 37°C, means of triplicate experiments, read-out: ID/50 (the source's name); for ID/50: recalculated as ppm F, 1440 min
Text: as §1, §2, §3, §4, §5

pH of aqueous solution = format: physicochemical
Text: An aqueous solution of Sn(NH4)2F6 has a ^pH of about 3.8 as compared to a pH of 3.0 for SnF2. This higher pH characteristic eliminates some of the formulation problems encountered with the strong acid effect of SnF2. The preferred pH of oral compositions containing ^Sn(NH4)2F6 is from 3.5 to 8.0. A 1000 ppm F^- solution of Sn(NH4)2F6 was stable.

[8] = Stability of aqueous solution on standing (haze / turbidity); format: physicochemical; details: 1000 ppm F- solution of Sn(NH4)2F6 on standing several weeks; SnF2 solution after 24 hours at room temperature
[9] = applied topically to the teeth; Caries Res. 3, 315-325, 1969; cited from earlier work
[10] = concentration equivalent to 1000 ppm
[11] = concentration equivalent to 2500 ppm

Structure (SMILES) | released available F [1, 10] | released available F [1, 11] | IC50 [2] | ID/50 [2] | IC50 (Lactobacillus casei) | ID/50 (Lactobacillus casei) | IC50 [3] | ID/50 [3] | IC50 [4] | ID/50 [4] | ID/50 [5] | IC50 [6] | ID/50 [6] | IC50 [7] | ID/50 [7] | pH (pH of aqueous solution) | stability of solution [8] | caries inhibiting effect [9]
N.N.[F-].[F-].[F-].[F-].[F-].[F-].[Sn] [Sn(NH4)2F6, stannic ammonium fluoride] | the same ionisation values as SnF2 | the same ionisation values as SnF2 | 220 µM | 25 ppm F | 2530 µM | 288 ppm F | 400 µM | 46 ppm F | 390 µM | 45 ppm F | 137 ppm F | 1430 µM | 163 ppm F | 1650 µM | 188 ppm F | about 3.8 | stable | 
[F-].[Na+] [NaF] |  |  | 1180 µM | 22 ppm F | > 12000 µM | 352 ppm F | 3770 µM | 72 ppm F | 1820 µM | 35 ppm F | 138 ppm F | 16300 µM | 309 ppm F | 13400 µM | 255 ppm F |  |  | 
[F-].[F-].[F-].[F-].[F-].[F-].[Na+].[Na+].[Sn+4] [Na2SnF6, sodium hexafluorostannate] | 73% | 38% |  |  |  |  |  |  |  |  |  |  |  |  |  |  |  | has a caries inhibiting effect
[Cl][Sn][Cl] [SnCl2] |  |  |  |  | 3000 to 6000 µM |  |  |  |  |  |  |  |  |  |  |  |  | 
[F][Sn][F] [SnF2] | 80% | 45% | 440 µM | 17 ppm F | 2970 µM | 113 ppm F | 740 µM | 29 ppm F | 840 µM | 32 ppm F | 56 ppm F | 2280 µM | 87 ppm F | 2450 µM | 93 ppm F | 3.0 | developed turbidity | 
